In article PMC4774911, “Biochemical Screening of Five Protein Kinases from Plasmodium falciparum against 14,000 Cell-Active Compounds” (PLoS ONE, 2016):
Several values for one entry are separate records, joined by “and”; a condition that tells them apart may be missing. Identical values can stand only once.

Assays:
Assay in all cases: biochemical
Design in all cases: endogenous in cells; host or cells: K562 cell extract; species or system K562 (extract); replicate k of n = 2 (each experiment ID is one independent experiment; two experiment IDs per compound)
Conditions in all cases: read-out: KDapp
AAK1 = AAK1 (Homo sapiens, UniProt Q2M2I8)
Chain of AAK1 (Q2M2I8 whole entry): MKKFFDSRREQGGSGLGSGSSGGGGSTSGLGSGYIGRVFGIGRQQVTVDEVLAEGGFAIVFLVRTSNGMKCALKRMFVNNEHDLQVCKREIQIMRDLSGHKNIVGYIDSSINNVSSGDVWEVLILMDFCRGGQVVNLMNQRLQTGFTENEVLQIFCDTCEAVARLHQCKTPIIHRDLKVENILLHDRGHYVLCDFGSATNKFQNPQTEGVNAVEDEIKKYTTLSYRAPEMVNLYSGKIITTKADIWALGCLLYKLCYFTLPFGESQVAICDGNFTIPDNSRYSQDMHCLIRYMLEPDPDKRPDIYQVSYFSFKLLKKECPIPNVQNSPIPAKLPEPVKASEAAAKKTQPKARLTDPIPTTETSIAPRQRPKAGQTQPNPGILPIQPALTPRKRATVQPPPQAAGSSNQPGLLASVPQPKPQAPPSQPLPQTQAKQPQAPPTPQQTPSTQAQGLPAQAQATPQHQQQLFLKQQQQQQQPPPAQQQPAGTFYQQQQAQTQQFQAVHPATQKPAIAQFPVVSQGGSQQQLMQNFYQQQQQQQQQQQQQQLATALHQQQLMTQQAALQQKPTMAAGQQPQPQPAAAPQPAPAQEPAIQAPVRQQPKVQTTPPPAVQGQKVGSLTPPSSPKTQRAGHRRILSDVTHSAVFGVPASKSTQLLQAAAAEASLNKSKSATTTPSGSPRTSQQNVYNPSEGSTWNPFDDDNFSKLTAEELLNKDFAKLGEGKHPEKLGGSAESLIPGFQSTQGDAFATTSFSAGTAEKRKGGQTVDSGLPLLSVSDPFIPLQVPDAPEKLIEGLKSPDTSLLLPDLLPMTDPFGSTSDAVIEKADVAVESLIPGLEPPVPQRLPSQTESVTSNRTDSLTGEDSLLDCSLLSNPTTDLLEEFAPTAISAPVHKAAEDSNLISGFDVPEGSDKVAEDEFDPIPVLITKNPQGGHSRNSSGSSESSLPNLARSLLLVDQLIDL

RPS6KA3 = RPS6KA3 (Homo sapiens, UniProt P51812)
Chain of RPS6KA3 (P51812 whole entry): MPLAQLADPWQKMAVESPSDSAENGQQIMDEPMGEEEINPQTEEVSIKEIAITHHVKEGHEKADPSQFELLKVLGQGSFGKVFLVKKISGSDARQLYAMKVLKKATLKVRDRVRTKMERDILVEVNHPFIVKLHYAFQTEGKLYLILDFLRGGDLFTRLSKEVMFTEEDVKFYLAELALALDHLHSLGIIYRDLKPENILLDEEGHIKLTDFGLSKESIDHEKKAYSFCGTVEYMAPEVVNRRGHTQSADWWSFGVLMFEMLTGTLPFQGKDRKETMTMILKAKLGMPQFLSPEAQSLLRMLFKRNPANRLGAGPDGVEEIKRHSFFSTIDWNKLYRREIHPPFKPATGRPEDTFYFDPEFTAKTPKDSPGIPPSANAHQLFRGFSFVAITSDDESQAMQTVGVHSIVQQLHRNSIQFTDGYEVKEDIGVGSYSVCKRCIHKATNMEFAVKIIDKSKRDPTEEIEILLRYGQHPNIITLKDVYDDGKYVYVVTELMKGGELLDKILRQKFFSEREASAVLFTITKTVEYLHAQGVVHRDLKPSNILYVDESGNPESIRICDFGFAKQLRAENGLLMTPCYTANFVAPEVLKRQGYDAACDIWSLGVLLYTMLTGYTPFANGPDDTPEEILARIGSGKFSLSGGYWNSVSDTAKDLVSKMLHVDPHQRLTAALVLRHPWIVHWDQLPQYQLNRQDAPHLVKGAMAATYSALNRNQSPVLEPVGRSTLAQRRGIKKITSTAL

CDC2 = CDC2 (Homo sapiens, UniProt P06493)
Chain of CDC2 (P06493 whole entry): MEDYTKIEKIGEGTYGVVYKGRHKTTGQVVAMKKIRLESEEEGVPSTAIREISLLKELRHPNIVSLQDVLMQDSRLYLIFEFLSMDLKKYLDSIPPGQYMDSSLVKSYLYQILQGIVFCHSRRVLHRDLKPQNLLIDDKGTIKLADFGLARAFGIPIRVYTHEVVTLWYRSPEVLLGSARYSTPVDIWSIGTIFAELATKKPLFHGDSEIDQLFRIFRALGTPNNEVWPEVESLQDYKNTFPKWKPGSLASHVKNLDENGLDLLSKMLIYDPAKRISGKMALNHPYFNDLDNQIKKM

ERN1 = ERN1 (Homo sapiens, UniProt O75460)
CAMK2G = CAMK2G (Homo sapiens, UniProt Q13555)
Chain of CAMK2G (Q13555 whole entry): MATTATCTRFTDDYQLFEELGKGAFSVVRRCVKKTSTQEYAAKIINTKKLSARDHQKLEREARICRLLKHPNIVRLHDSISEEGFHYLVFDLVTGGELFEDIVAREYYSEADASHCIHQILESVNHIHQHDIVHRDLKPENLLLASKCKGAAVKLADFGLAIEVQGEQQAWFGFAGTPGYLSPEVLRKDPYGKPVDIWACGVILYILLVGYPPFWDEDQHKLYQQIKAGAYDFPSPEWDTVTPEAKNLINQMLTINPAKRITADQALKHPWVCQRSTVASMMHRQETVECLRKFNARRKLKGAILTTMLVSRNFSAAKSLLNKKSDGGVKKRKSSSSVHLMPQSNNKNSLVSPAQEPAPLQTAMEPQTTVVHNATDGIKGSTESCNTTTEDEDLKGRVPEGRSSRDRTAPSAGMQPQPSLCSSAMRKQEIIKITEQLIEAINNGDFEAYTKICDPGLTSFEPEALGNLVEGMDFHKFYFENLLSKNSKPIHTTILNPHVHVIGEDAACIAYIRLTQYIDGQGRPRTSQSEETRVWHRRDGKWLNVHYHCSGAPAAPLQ

PDPK1 = target: T1, PDPK1 (Homo sapiens, UniProt O15530)
T1 sequence (O15530 1-556): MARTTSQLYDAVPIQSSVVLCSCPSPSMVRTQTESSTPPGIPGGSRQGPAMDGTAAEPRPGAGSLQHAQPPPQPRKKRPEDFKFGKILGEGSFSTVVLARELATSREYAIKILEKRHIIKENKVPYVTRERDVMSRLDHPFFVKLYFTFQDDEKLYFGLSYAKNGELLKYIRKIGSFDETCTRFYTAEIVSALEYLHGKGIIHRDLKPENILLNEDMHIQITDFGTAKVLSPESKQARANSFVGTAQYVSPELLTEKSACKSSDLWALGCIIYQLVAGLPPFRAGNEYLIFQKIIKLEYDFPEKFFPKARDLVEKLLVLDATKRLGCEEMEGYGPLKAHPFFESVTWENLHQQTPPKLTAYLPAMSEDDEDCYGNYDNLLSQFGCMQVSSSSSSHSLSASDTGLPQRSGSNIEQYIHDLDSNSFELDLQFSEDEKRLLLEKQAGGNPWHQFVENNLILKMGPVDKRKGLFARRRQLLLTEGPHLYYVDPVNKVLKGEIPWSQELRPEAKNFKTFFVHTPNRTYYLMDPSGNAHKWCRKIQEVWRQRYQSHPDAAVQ

KIT = KIT (Homo sapiens, UniProt P10721)
BMX = BMX (Homo sapiens, UniProt P51813)
Chain of BMX (P51813 whole entry): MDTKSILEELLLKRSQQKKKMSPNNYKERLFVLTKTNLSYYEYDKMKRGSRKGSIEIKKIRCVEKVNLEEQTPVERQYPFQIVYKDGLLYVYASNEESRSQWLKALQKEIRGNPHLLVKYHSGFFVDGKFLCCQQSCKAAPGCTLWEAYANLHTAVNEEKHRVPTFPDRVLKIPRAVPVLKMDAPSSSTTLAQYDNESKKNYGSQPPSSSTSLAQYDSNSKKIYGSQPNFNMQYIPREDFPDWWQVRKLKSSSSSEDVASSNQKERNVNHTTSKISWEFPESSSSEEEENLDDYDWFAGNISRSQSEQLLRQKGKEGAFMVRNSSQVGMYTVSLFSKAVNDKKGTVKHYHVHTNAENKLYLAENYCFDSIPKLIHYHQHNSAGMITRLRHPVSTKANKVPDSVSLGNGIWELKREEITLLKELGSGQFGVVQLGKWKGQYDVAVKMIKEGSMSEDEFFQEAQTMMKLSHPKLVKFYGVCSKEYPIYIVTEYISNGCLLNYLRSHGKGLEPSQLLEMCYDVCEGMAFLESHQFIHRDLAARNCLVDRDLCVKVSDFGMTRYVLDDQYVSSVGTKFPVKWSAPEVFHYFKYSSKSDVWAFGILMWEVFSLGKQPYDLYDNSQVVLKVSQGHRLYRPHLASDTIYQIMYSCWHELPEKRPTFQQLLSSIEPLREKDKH

CAMK2D = CAMK2D (Homo sapiens, UniProt Q13557)
Chain of CAMK2D (Q13557 whole entry): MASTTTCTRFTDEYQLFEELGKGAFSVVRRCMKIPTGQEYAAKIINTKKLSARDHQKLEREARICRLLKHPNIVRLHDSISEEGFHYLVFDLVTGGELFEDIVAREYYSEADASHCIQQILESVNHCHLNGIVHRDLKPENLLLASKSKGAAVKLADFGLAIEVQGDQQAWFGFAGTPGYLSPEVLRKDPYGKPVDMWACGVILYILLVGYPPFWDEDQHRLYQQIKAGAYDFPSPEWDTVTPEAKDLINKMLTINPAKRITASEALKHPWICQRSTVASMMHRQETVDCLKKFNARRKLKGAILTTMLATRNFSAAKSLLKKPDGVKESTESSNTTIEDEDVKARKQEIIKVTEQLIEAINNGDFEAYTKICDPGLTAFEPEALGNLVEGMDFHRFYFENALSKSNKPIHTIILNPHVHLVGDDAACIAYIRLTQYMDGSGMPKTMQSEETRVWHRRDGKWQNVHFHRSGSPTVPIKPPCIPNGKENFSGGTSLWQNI

MARK4 = target: T2, MARK4 (Homo sapiens, UniProt Q96L34)
T2 sequence (Q96L34 1-752): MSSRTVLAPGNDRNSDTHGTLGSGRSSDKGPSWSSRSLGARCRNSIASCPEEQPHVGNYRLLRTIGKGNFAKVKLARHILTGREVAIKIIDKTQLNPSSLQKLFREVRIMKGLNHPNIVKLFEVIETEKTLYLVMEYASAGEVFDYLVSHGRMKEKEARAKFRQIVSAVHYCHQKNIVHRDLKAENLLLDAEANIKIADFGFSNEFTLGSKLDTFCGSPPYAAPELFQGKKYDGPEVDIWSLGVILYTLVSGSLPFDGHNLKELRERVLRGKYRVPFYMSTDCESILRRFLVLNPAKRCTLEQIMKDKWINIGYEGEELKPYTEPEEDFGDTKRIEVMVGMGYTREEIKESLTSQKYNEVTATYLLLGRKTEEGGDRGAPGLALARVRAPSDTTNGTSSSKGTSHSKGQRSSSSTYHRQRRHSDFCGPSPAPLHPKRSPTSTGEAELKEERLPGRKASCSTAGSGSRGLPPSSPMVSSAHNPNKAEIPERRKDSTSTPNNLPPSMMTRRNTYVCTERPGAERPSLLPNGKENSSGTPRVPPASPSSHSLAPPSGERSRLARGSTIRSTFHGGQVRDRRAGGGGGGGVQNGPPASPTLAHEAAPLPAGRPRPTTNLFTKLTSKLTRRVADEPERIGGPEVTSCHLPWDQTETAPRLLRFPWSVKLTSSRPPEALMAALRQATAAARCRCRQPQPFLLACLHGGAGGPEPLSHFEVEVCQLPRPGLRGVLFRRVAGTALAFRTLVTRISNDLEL

CSNK2A2 = CSNK2A2 (Homo sapiens, UniProt P19784)
Chain of CSNK2A2 (P19784 whole entry): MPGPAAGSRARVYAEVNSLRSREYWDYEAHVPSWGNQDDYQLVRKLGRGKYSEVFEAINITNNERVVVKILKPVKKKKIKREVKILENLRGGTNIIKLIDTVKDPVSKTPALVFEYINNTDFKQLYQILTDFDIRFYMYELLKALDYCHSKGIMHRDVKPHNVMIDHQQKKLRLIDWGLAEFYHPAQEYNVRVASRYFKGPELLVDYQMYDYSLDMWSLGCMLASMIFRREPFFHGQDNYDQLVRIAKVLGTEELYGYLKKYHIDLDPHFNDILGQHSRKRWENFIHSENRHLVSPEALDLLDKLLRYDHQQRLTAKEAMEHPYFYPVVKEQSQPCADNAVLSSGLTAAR

CN1CCN(c2ccc(Nc3ncc(C#N)c(Nc4ccccc4C(N)=O)n3)cc2)CC1.Cl [TCMDC-134116]
Kd (AAK1): 36.7 nM | Kd (RPS6KA3): 60.8 nM and 82 nM | Kd (CDC2): 1210 nM | Kd (ERN1): 127 nM | Kd (CAMK2G): 340 nM and 294 nM | Kd (PDPK1): 605 nM and 503 nM | Kd (KIT): 1100 nM | Kd (BMX): 285 nM | Kd (CAMK2D): 323 nM and 163 nM

CN(C)CC(O)COc1ccc(Nc2ncc([N+](=O)[O-])c(Nc3ccccc3O)n2)cc1.O=C(O)C(F)(F)F (centres unmarked) [TCMDC-141399]
Kd (MARK4): 6160 nM and 3900 nM | Kd (CSNK2A2): 33.3 nM and 26.8 nM
